Target: T1, MshE (VC0405) (Vibrio cholerae, UniProt Q9KUV7)
T1 construct: gene VC_0405
Test: biochemical

T1 sequence (Q9KUV7 1-575): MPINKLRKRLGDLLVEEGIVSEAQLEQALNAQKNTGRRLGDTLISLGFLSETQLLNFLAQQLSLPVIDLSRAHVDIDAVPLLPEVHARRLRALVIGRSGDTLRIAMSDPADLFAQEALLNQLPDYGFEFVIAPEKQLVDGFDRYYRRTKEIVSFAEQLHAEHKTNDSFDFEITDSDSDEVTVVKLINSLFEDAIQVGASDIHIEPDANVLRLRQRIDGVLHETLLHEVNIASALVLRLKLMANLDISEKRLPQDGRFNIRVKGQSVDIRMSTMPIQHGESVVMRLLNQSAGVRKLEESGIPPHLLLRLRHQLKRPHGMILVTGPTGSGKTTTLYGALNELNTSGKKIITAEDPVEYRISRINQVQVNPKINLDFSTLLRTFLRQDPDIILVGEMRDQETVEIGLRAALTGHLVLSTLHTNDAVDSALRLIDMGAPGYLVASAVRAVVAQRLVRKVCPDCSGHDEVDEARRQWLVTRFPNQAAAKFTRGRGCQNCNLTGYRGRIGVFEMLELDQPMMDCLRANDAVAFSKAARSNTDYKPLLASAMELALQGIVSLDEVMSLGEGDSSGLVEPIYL

Nc1nc2c(ncn2[C@@H]2O[C@@H]3CO[P@](=O)(O)O[C@H]4[C@@H](O)[C@H](n5cnc6c(=O)[nH]c(N)nc65)O[C@@H]4CO[P@](=O)(O)O[C@H]3[C@H]2O)c(=O)[nH]1 [c-di-GMP]
Kd: 1900 ± 400 nM
